Data published in article PMC11876601 (Molecular Systems Biology, 2025).
Values joined by “and” are separate entries in the source; they are usually repeats but may differ in a detail not shown here. Identical values can stand only once.

What was measured:
PRKAG1 = tested on: PRKAG1; design: method as in Klaeger et al. (2017); conditions: lysate 4 cell line mix (Colo205, K-562, MV-4-11, and SK-N-BE(2)), Kinobeads y, ref Klaeger et al. (2017); cited from earlier work
GAK = tested on: GAK; design: method as in Klaeger et al. (2017); conditions: lysate 4 cell line mix (Colo205, K-562, MV-4-11, and SK-N-BE(2)), Kinobeads y, ref Klaeger et al. (2017); cited from earlier work
CAMKK2 = tested on: CAMKK2; design: method as in Klaeger et al. (2017); conditions: lysate 4 cell line mix (Colo205, K-562, MV-4-11, and SK-N-BE(2)), Kinobeads y, ref Klaeger et al. (2017); cited from earlier work
INSR = biological target: INSR; design: method as in Reinecke et al. (2023); conditions: 5 cell line mix lysate, Kinobeads ε, ref Reinecke et al. (2023), cited from earlier work
PTK2B = biological target: PTK2B; design: method as in Reinecke et al. (2023); conditions: 5 cell line mix lysate, Kinobeads ε, ref Reinecke et al. (2023), cited from earlier work
p-sites in AsPC-1 cells = experiment: Phosphoproteomics 1 µM GEM vs. vehicle (4 h); assay type: cell-based, human
Description: Cell culture medium was replaced 24 h after seeding. […] For time point 0, AsPC-1 cells were treated with a vehicle and lysed immediately. The final DMSO concentration in all experiments was 0.2%.
Briefly, cells were washed twice with PBS and lysed in SDS lysis buffer (2% SDS in 40 mM Tris-HCl, pH 7.6), followed by sonication for 10 min (30 s on/30 s off) using a Bioruptor (Diagenode). For DNA hydrolysis, samples were boiled at 95 °C for 10 min and incubated with 2% trifluoroacetic acid (TFA) for 1 min, before the reaction was quenched using 4% N-methylmorpholine. Lysate was cleared by centrifugation at 11,000 × g for 5 min and protein concentration was determined using the Pierce BCA Protein Assay Kit (Thermo Scientific).
Using 70% ethanol, samples were then precipitated on beads, followed by washing thrice with 80% ethanol and once with 100% acetonitrile. Subsequently, proteins were reduced and alkylated using 10 mM TCEP, 50 mM chloroacetamide, and 2 mM CaCl2 in 100 mM EPPS/NaOH, pH 8.5 for 1 h at 37 °C, followed by tryptic digestion at 37 °C for 16 h. Peptides were acidified with 1% TFA and desalted on Chromabond HLB plates (30 µm particle size, 10 mg capacity, Machery-Nagel), using 0.1% TFA for equilibration and sample loading, and 0.1% TFA in 70% acetonitrile for peptide elution. Recovered peptides were freeze-dried by vacuum-centrifugation and stored at −20 °C.
Depending on the experiment, samples were either labeled with TMT-11plex (decryptM), TMT-10plex (non-decryptM, quadruplicates), or TMTpro reagent (time-series; all Thermo Scientific). Therefore, dried peptides were reconstituted in 15 µl 100 mM EPPS, pH 8.5 and each treatment condition was labeled with one channel of the respective TMT reagent (5 µl of 25 µg/µl reagent, Appendix Tables S4–S6). The reaction was incubated for 1 h at 23 °C and subsequently quenched with 0.4% hydroxylamine. Then, samples were pooled, acidified with 1% formic acid, and freeze-dried by vacuum-centrifugation. Labeled peptide pools were desalted on C18 Sep-Pak cartridges (37–55 µm particle size, 50 mg capacity, Waters), using 0.1% formic acid as equilibration solvent, and 0.1% formic acid in 60% acetonitrile was used as elution solvent. Eluted peptides were freeze-dried and stored at −20 °C until further use.
Basic reversed-phase (bRP) fractionation of peptides was performed on a Vanquish HPLC (Thermo Scientific). In short, dried peptides were reconstituted in 200 µl 25 mM ammonium bicarbonate, pH 8.0 and directly injected onto a Waters BEH130 XBridge C18 column (3.5 µm, 4.6 × 250 mm). […] Using an automated fraction collector, 96 fractions were collected between min 7 and 55 after injection. Fractions were acidified with 1% formic acid and pooled to 48 fractions, before they were freeze-dried and stored at −20 °C.
Immobilized metal ion affinity chromatography (IMAC) enrichment of phosphorylated peptides was performed on the Bravo automated liquid handling platform using AssayMAP Fe(III)-NTA cartridges (Agilent). In brief, the 48 dried peptide fractions were reconstituted in 0.1% TFA in 80% acetonitrile and further pooled to 12 fractions (200 µl final volume per well). The phosphopeptide enrichment protocol embedded in the Agilent AssayMAP Bravo Protein Sample Prep Workbench v2.0 software was run. Thereby, the cartridges were first primed with 150 μl 0.1% TFA in acetonitrile at 300 μl/min, and equilibrated with 150 μl 0.1% TFA in 80% acetonitrile at 10 μl/min. Then, pooled fractions were loaded at 5 µl/min and further washed three times with 150 μl 0.1% TFA in 80% acetonitrile at 50 μl/min. Enriched peptides were eluted with 60 μl 1% ammonium hydroxide at 5 μl/min.

SMILES: C[C@]12O[C@H](C[C@]1(O)CO)n1c3ccccc3c3c4c(c5c6ccccc6n2c5c31)CNC4=O [Lestaurtinib]
- EC50 (PRKAG1): 1400 nM

SMILES: COc1cc(N2CCC(N3CCN(C)CC3)CC2)ccc1Nc1ncc(Cl)c(Nc2ccccc2P(C)(C)=O)n1 [Brigatinib]
- Kd (INSR; read-out: KDapp): 1320 nM
- EC50 (INSR): 1750 nM
- pKDapp (INSR): 5.88
- Kd (PTK2B; read-out: KDapp): 5.14 nM
- EC50 (PTK2B): 12.4 nM
- pKDapp (PTK2B): 8.29

SMILES: Nc1ccn([C@@H]2O[C@H](CO)[C@@H](O)C2(F)F)c(=O)n1 [GEM, Gemcitabine]
- increase of CHEK1-pS468 phosphorylation upon GEM (p-sites in AsPC-1 cells; 1 µM GEM vs. vehicle): > 18 fold and 18 fold
- increase of LRRC42-pS385 upon GEM (p-sites in AsPC-1 cells; 1 µM GEM vs. vehicle): 4.8 fold and ~ 5 fold
- increase of NSUN5-pS432 upon GEM (p-sites in AsPC-1 cells; 1 µM GEM vs. vehicle): 7 fold
- increase of PNISR-pS706 upon GEM (p-sites in AsPC-1 cells; 1 µM GEM vs. vehicle): 4.6 fold
- induction of HMGA1 pS9 by GEM (p-sites in AsPC-1 cells; 1 µM GEM vs. vehicle): > 4 fold
- induction of HMGA1 pS44 by GEM (p-sites in AsPC-1 cells; 1 µM GEM vs. vehicle): > 4 fold
- induction of PPM1G pS201 by GEM (p-sites in AsPC-1 cells; 1 µM GEM vs. vehicle): > 4 fold
- induction of TSEN34 pS136 by GEM (p-sites in AsPC-1 cells; 1 µM GEM vs. vehicle): > 4 fold
- GEM Regulation, PPM1G S201 (p-sites in AsPC-1 cells; 1,000 nM GEM vs. vehicle, n=4): up
- GEM Regulation, RALY S176 (p-sites in AsPC-1 cells; 1,000 nM GEM vs. vehicle, n=4): up
- GEM_log2FC, PPM1G S201 (p-sites in AsPC-1 cells; 1,000 nM GEM vs. vehicle, n=4): 2.66 log2
- GEM_log2FC, RALY S176 (p-sites in AsPC-1 cells; 1,000 nM GEM vs. vehicle, n=4): 3.08 log2
